Measured values from patent US10981932B2, “Macrocyclic indole derivatives” (Bayer Aktiengesellschaft, priority 2016, dated 2021).
“And” between values parts separate entries of the source, which are not always exact repeats. Equal entries are not always repeated. Structures can show the parent of a compound that is named as a salt. Where two headings read alike, the source gives them in different places.

What was measured:
MCL-1 = MCL-1 (Homo sapiens, UniProt Q07820); assay: Protein-protein interaction assay MCL-1/Noxa BH3 peptide (MCL-1 assay), TR-FRET; assay type: binding; conditions: MBP-MCL-1 / Noxa BH3-derived peptide, median
Sequence of MCL-1 (Q07820 whole entry): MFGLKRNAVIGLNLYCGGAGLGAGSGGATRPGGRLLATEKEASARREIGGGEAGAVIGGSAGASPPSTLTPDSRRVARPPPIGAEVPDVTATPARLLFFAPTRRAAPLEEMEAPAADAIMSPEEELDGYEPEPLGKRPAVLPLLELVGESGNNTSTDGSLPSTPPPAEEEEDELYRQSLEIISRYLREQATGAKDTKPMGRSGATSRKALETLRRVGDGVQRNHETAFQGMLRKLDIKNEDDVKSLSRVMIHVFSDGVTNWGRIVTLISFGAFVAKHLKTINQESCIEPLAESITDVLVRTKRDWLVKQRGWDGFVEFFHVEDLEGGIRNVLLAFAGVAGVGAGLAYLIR
Method in brief: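 MBP-MCL-1 (1 nM final) was preincubated 10 min at 22 °C with compounds (11 concentrations, 0.1 nM–20 μM, duplicates) in Tris pH 7 buffer with NaCl, KF, Tween-20, DTT and BGG. After 1 h at 22 °C in the dark plus overnight at 4 °C, anti-MBP Eu-cryptate/streptavidin-XL665 TR-FRET was read; IC50 came from a 4-parameter fit.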

SUDHL5 [1] = assay: Induction of caspase-3/7 activity (Caspase-Glo 3/7), SUDHL5; assay type: cell-based; conditions: caspase-3/7 induction, SUDHL5 cells, 3 h treatment, median
Method in brief: (§1)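 Caspase-Glo 3/7 luminescence measured after 3 h compound exposure at 37 °C in SUDHL10 and SUDHL5 cells. EC50 values come from background-corrected signals, with curve bottom set to 1 and plateau set to maximal induction by the reference compound.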

SUDHL10 [2] = assay: Induction of caspase-3/7 activity (Caspase-Glo 3/7), SUDHL10; assay type: cell-based; conditions: caspase-3/7 induction, SUDHL10 cells, 3 h treatment, median
Method in brief: as §1

OPM2 = assay: Anti-proliferative effect (CellTiter-Glo, 72 h), OPM2; assay type: cell-based; conditions: OPM2 cells, median, read-out: IC50 antiproliferation assay OPM2 [M] (median)
Description: Assessment of the Anti-Proliferative Effect of Compounds in Different Cell Lines
The impact of compounds on the proliferation of different cell lines was assessed using the CellTiter-Glo® Luminescent Cell Viability reagent from Promega (G7573). Of note, SUDHL10 and SUDHL5 (DLBCL), NCI-H929 (Multiple Myeloma), A2780 (ovarian carcinoma) as well as MV-4-11(AML) cells are sensitive to MCL-1 inhibition.
In parallel, cells were plated in a reference (day 0) plate for time zero determination.
Rim wells were excluded. The cells were incubated for 72 h hours in a humidified incubator at 37° C. The day 0 plate was measured by adding 30 μl/well of CTG solution (CellTiter-Glo® Luminescent Cell Viability reagent, Promega G7573) to time zero wells in the reference plate followed by a 10 minutes incubation and luminescence reading at 0.1 ms, using the PHERAstar FS microplate reader (BMG Labtech).
After 72 h incubation, the treated plates were measured in the same way as the day 0 plate mentioned above.

A2780 = assay: Anti-proliferative effect (CellTiter-Glo, 72 h), A2780; assay type: cell-based; conditions: A2780 cells, median, read-out: IC50 antiproliferation assay A2780 [M] (median)
Method in brief: (§2)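 CellTiter-Glo luminescence readout of viability, taken on a time-zero plate at day 0 and on treated plates after 72 h incubation at 37 °C in a humidified incubator. Reagent incubation 10 min before reading.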

SUDHL5 [3] = assay: Induction of cytotoxicity (CellTiter-Glo, 5 h), SUDHL5
SUDHL10 [4] = assay: Induction of cytotoxicity (CellTiter-Glo, 5 h), SUDHL10
SUDHL10 [5] = assay: Anti-proliferative effect (CellTiter-Glo, 72 h), SUDHL10; assay type: cell-based; conditions: SUDHL10 cells, antiproliferation, 72 h incubation, median, read-out: Antiproli SUDHL10 [M] (median)
Method in brief: as §2

SUDHL5 [6] = assay: Anti-proliferative effect (CellTiter-Glo, 72 h), SUDHL5; assay type: cell-based; conditions: Homo sapiens, SU-DHL-5, 72 h, SUDHL5 cells, antiproliferation, 72 h incubation, median, read-out: Antiproli SUDHL5 [M] (median)
Method in brief: as §2

[7] = read-out: Cytotox SUDHL5 [M] (median), SUDHL5 cells, cytotoxicity induction, CellTiter-Glo, 5 h incubation, median
[8] = read-out: Cytotox SUDHL10 [M] (median), SUDHL10 cells, cytotoxicity induction, CellTiter-Glo, 5 h incubation, median
[9] = Homo sapiens, SU-DHL-5, 5 h, read-out: Cytotox SUDHL5 [M] (median), SUDHL5 cells, cytotoxicity induction, CellTiter-Glo, 5 h incubation, median
[10] = Homo sapiens, SU-DHL10, 5 h, read-out: Cytotox SUDHL10 [M] (median), SUDHL10 cells, cytotoxicity induction, CellTiter-Glo, 5 h incubation, median

Compound | IC50 (MCL-1) | EC50 (SUDHL5 [1]) | EC50 (SUDHL10 [2]) | IC50 (OPM2) | IC50 (A2780; Homo sapiens, A2780, 72 h) | IC50 (SUDHL5 [3]; [7]) | IC50 (SUDHL10 [4]; [8]) | EC50 (SUDHL5 [1]; Homo sapiens, SU-DHL-5, 3 h) | EC50 (SUDHL10 [2]; Homo sapiens, SU-DHL10, 3 h) | IC50 (SUDHL10 [5]; Homo sapiens, SU-DHL10, 72 h) | IC50 (OPM2; Homo sapiens, OPM-2, 72 h) | IC50 (SUDHL5 [3]; [9]) | IC50 (SUDHL10 [4]; [10]) | IC50 (A2780) | IC50 (SUDHL10 [5]) | IC50 (SUDHL5 [6])
COCC(=O)N1CCN(c2ccc(OCc3nn(C)c4c3-c3cccc5c(CCCOc6cccc7ccccc67)c(C(=O)O)n(c35)CCCCOC4)cc2)CC1 (single isomer, unassigned; enantiomer 1) [Example 1-28, 3-({4-[4-(methoxyacetyl)piperazin-1-yl]phenoxy}methyl)-1-methyl-7-[3-(naphthalen-1-yloxy)propyl]-1,10,11,12,13,15-hexahydropyrazolo[4′,3′:9,10][1,6]oxazacycloundecino[8,7,6-hi]indole-8-carboxylic Acid (Enantiomer 1)] | 0.0709 µM | > 33 µM | > 33 µM | 1.98e-05 M | 3.12e-05 M | > 3.3e-05 M | > 3.3e-05 M | – | – | – | – | – | – | – | – | –
Cc1cc(OCCCc2c(C(=O)O)n3c4c(cccc24)-c2c(C)nn(C)c2COCCC3)cc(C)c1Cl (racemic) [Example 013, (rac)-1-[3-(4-chloro-3,5-dimethylphenoxy)propyl]-9,11-dimethyl-5,6,8,9-tetrahydro-4H-pyrazolo[4′,3′:8,9][1,5]oxazecino[7,6,5-hi]indole-2-carboxylic Acid] | 0.0345 µM | – | – | – | 3.27e-05 M | – | – | > 33 µM | > 33 µM | 4.83e-06 M | > 3.3e-05 M | > 3.3e-05 M | > 3.3e-05 M | – | – | –
CC(=O)N1CCN(c2ccc(OCc3nn(C)c4c3-c3cccc5c(CCCOc6cccc7ccccc67)c(C(=O)O)n(c35)CCCCOC4)cc2)CC1 (single isomer, unassigned; enantiomer 2) [Example 1-26, 3-{[4-(4-acetylpiperazin-1-yl)phenoxy]methyl}-1-methyl-7-[3-(naphthalen-1-yloxy)propyl]-1,10,11,12,13,15-hexahydropyrazolo[4′,3′:9,10][1,6]oxazacycloundecino[8,7,6-hi]indole-8-carboxylic Acid (Enantiomer 2)] | 0.00163 µM | > 33 µM | > 33 µM | 2e-06 M | – | > 3.3e-05 M | > 3.3e-05 M | – | – | – | – | – | – | 2.48e-05 M | – | –
COCc1nn(C)c2c1-c1cccc3c(CCCOc4cccc5ccccc45)c(C(=O)O)n(c13)CCCCOC2 (single isomer, unassigned; enantiomer 2) [Example 160, 3-(methoxymethyl)-1-methyl-7-[3-(naphthalen-1-yloxy)propyl]-1,10,11,12,13,15-hexahydropyrazolo[4′,3′:9,10][1,6]oxazacycloundecino[8,7,6-hi]indole-8-carboxylic acid-N-ethylethanamine Salt (Enantiomer 2)] | 0.0208 µM | 17.9 µM | > 33 µM | > 3.3e-05 M | – | 2.05e-05 M | > 3.3e-05 M | – | – | – | – | – | – | > 3.3e-05 M | 1.49e-05 M | –
Cc1c2c(nn1C)CN(C)CCCCn1c(C(=O)O)c(CCCOc3cccc4ccccc34)c3cccc-2c31 (racemic) [Example 067, (rac)-2,3,14-trimethyl-7-[3-(naphthalen-1-yloxy)propyl]-10,11,12,13,14,15-hexahydro-2H-pyrazolo[3′,4′:8,9][1,6]diazacycloundecino[10,11,1-hi]indole-8-carboxylic Acid] | 0.0221 µM | – | – | – | 2.72e-06 M | – | – | > 33 µM | > 33 µM | 5.38e-06 M | 1.48e-05 M | > 3.3e-05 M | > 3.3e-05 M | – | – | –
COc1cc2cc(c1)-c1cccc3c(CCCOc4cccc5c4CCCC5)c(C(=O)O)n(c13)CCOCCO2 (racemic) [Example 1-118, (rac)-12-Methoxy-1-[3-(5,6,7,8-tetrahydronaphthalen-1-yloxy)propyl]-4,57,8-tetrahydro-10,14-(metheno)[1,4,7]dioxazacyclotetradecino[9,8,7-hi]indole-2-carboxylic Acid] | 2.18 µM | – | – | – | 3.25e-05 M | – | – | > 33 µM | > 33 µM | 2.2e-05 M | > 3.3e-05 M | > 3.3e-05 M | > 3.3e-05 M | – | – | –
CN(C)S(=O)(=O)N1CCN(c2ccc(OCc3nn(C)c4c3-c3cccc5c(CCCOc6cccc7ccccc67)c(C(=O)O)n(c35)CCCCCC4)cc2)CC1 (single isomer, unassigned; enantiomer 2) [Example 1-41, 3-({4-[4-(dimethylsulfamoyl)piperazin-1-yl]phenoxy}methyl)-1-methyl-7-[3-(naphthalen-1-yloxy)propyl]-10,11,12,13,14,15-hexahydro-1H-pyrazolo[4′,3′:4,5]azacycloundecino[3,2,1-hi]indole-8-carboxylic acid-N-ethylethanamine Salt (Enantiomer 2)] | 0.00106 µM | 0.723 µM | 0.897 µM | 2.17e-06 M | – | 7.69e-07 M | 1.52e-06 M | – | – | – | – | – | – | 5.32e-06 M | 1.1e-06 M | –
Cc1nn(C)c2c1-c1cccc3c(CCCOc4cccc5ccccc45)c(C(=O)O)n(c13)CCN(c1ccccc1)C2 (racemic) [Example 1-101, (rac)-8,10-Dimethyl-1-[3-(1-naphthyloxy)propyl]-6-phenyl-5,6,7,8-tetrahydro-4H-pyrazolo[3′,4′:6,7][1,4]diazonino[8,9,1-hi]indole-2-carboxylic Acid] | 0.319 µM | – | – | – | 1.97e-05 M | – | – | > 33 µM | > 33 µM | 1.05e-05 M | > 3.3e-05 M | > 3.3e-05 M | > 3.3e-05 M | – | – | –
COC1(c2ccc(OCc3nn(C)c4c3-c3cccc5c(CCCOc6cccc7ccccc67)c(C(=O)O)n(c35)CCCCOC4)cc2)CCOCC1 (single isomer, unassigned) [Example 1-66, 3-{[4-(4-methoxytetrahydro-2H-pyran-4-yl)phenoxy]methyl}-1-methyl-7-[3-(naphthalen-1-yloxy)propyl]-1,10,11,12,13,15-hexahydropyrazolo[4′,3′:9,10][1,6]oxazacycloundecino[8,7,6-hi]indole-8-carboxylic Acid] | 0.00943 µM | 6.15 µM | 8.47 µM | – | 1.22e-05 M | – | – | – | – | – | 1.18e-05 M | – | – | – | 9.23e-06 M and 1.76e-05 M | –
CC(=O)N1CCN(c2ccc(OCc3nn(C)c4c3-c3cccc5c(CCCOc6cccc7ccccc67)c(C(=O)O)n(c35)CCCCOC4)cc2)CC1 (single isomer, unassigned; enantiomer 1) [Example 1-25, 3-{[4-(4-acetylpiperazin-1-yl)phenoxy]methyl}-1-methyl-7-[3-(naphthalen-1-yloxy)propyl]-1,10,11,12,13,15-hexahydropyrazolo[4′,3′:9,10][1,6]oxazacycloundecino[8,7,6-hi]indole-8-carboxylic Acid (Enantiomer 1)] | 0.131 µM | 1.61 µM | 3.89 µM | 1.08e-05 M | 1.7e-05 M | 2.68e-06 M | 4.02e-06 M | – | – | – | – | – | – | – | – | 2.86e-05 M
CC(C)OCc1nn(C)c2c1-c1cccc3c(CCCOc4cccc5ccccc45)c(C(=O)O)n(c13)C/C=C\COC2 (racemic) [Example 1-68, (rac)-(11Z)-1-methyl-7-[3-(naphthalen-1-yloxy)propyl]-3-[(propan-2-yloxy)methyl]-1,10,13,15-tetrahydropyrazolo[4′,3′:9,10][1,6]oxazacycloundecino[8,7,6-hi]indole-8-carboxylic Acid] | 0.0269 µM | – | – | – | 2.87e-05 M | – | – | > 33 µM | > 33 µM | – | > 3.3e-05 M | – | – | – | – | –
